{
  "source": "ChEMBL document CHEMBL1201862",
  "about": "“PubChem BioAssay data set” (2004)",
  "test_in_all_cases": "growth of human tumour cells (NCI), 48 h",
  "key": {"NCI-H226": {"test_system": "NCI-H226"}, "MDA-N": {"test_system": "MDA-N"}, "UO-31": {"test_system": "UO-31"}, "TK-10": {"test_system": "TK-10"}, "UACC-62": {"test_system": "UACC-62"}, "KM12": {"test_system": "KM12"}, "EKVX": {"test_system": "EKVX"}, "ACHN": {"test_system": "ACHN"}, "BT-549": {"test_system": "BT-549"}, "UACC-257": {"test_system": "UACC-257"}, "PC-3": {"test_system": "PC-3"}, "OVCAR-8": {"test_system": "OVCAR-8"}, "SK-MEL-2": {"test_system": "SK-MEL-2"}, "M14": {"test_system": "M14"}, "Malme-3M": {"test_system": "Malme-3M"}, "T47D": {"test_system": "T47D"}, "OVCAR-4": {"test_system": "OVCAR-4"}, "Hs-578T": {"test_system": "Hs-578T"}, "CCRF-CEM": {"test_system": "CCRF-CEM"}, "786-0": {"test_system": "786-0"}, "NCI-H460": {"test_system": "NCI-H460"}, "SK-OV-3": {"test_system": "SK-OV-3"}, "HOP-92": {"test_system": "HOP-92"}, "MDA-MB-435": {"test_system": "MDA-MB-435"}, "HCT-116": {"test_system": "HCT-116"}, "HCT-15": {"test_system": "HCT-15"}, "COLO 205": {"test_system": "COLO 205"}, "U-251": {"test_system": "U-251"}, "HOP-62": {"test_system": "HOP-62"}, "HCC 2998": {"test_system": "HCC 2998"}, "SNB-75": {"test_system": "SNB-75"}, "SNB-19": {"test_system": "SNB-19"}, "DU-145": {"test_system": "DU-145"}, "SK-MEL-5": {"test_system": "SK-MEL-5"}, "RXF 393": {"test_system": "RXF 393"}, "NCI-H522": {"test_system": "NCI-H522"}, "A549": {"test_system": "A549"}, "OVCAR-5": {"test_system": "OVCAR-5"}, "SW-620": {"test_system": "SW-620"}, "SF-539": {"test_system": "SF-539"}, "HL-60": {"test_system": "HL-60"}, "NCI-H23": {"test_system": "NCI-H23"}, "IGROV-1": {"test_system": "IGROV-1"}, "OVCAR-3": {"test_system": "OVCAR-3"}, "K562": {"test_system": "K562"}, "MDA-MB-231": {"test_system": "MDA-MB-231"}, "RPMI-8226": {"test_system": "RPMI-8226"}, "SF-268": {"test_system": "SF-268"}, "SR": {"test_system": "SR"}, "SK-MEL-28": {"test_system": "SK-MEL-28"}, "SF-295": {"test_system": "SF-295"}, "MCF7": {"test_system": "MCF7"}, "CAKI-1": {"test_system": "CAKI-1"}, "HT-29": {"test_system": "HT-29"}, "A498": {"test_system": "A498"}, "LOX IMVI": {"test_system": "LOX IMVI"}, "NCI/ADR-RES": {"test_system": "NCI/ADR-RES"}, "SN12C": {"test_system": "SN12C"}},
  "note": "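1) Cells in 96-well plates. 2) Compound, 48 h, 5 concentrations. 3) Linear interpolation between surrounding doses. 4) Unreached endpoint = highest concentration. At the GI50, growth is halved.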 Activity calls are given as the source filed them. Cut-off read from the data, not from the text of the source: active = GI50 up to about 1.1 µM and inactive = higher.",
  "data": [
    {"molecule": "Nc1ccc(Oc2ccc(C34CC5CC(C3)CC(c3ccc(Oc6ccc(N)cc6)cc3)(C5)C4)cc2)cc1", "values": [
      {"measurement": "GI50", "setting": "NCI-H226", "value": "26.5 µM (inactive)"},
      {"measurement": "GI50", "setting": "MDA-N", "value": "8.71 µM (inactive)"},
      {"measurement": "GI50", "setting": "UO-31", "value": "33 µM (inactive)"},
      {"measurement": "GI50", "setting": "TK-10", "value": "10.3 µM (inactive)"},
      {"measurement": "GI50", "setting": "UACC-62", "value": "10.4 µM (inactive)"},
      {"measurement": "GI50", "setting": "KM12", "value": "7.67 µM (inactive)"},
      {"measurement": "GI50", "setting": "EKVX", "value": "25.4 µM (inactive)"},
      {"measurement": "GI50", "setting": "ACHN", "value": "19.5 µM (inactive)"},
      {"measurement": "GI50", "setting": "BT-549", "value": "8.69 µM (inactive)"},
      {"measurement": "GI50", "setting": "UACC-257", "value": "9.86 µM (inactive)"},
      {"measurement": "GI50", "setting": "PC-3", "value": "6.28 µM (inactive)"},
      {"measurement": "GI50", "setting": "OVCAR-8", "value": "5.26 µM (inactive)"},
      {"measurement": "GI50", "setting": "SK-MEL-2", "value": "13.1 µM (inactive)"},
      {"measurement": "GI50", "setting": "M14", "value": "10.4 µM (inactive)"},
      {"measurement": "GI50", "setting": "Malme-3M", "value": "11.6 µM (inactive)"},
      {"measurement": "GI50", "setting": "T47D", "value": "6.84 µM (inactive)"},
      {"measurement": "GI50", "setting": "OVCAR-4", "value": "8.79 µM (inactive)"},
      {"measurement": "GI50", "setting": "Hs-578T", "value": "20.2 µM (inactive)"},
      {"measurement": "GI50", "setting": "CCRF-CEM", "value": "> 22 µM (inactive)"},
      {"measurement": "GI50", "setting": "786-0", "value": "10.2 µM (inactive)"},
      {"measurement": "GI50", "setting": "NCI-H460", "value": "10.7 µM (inactive)"},
      {"measurement": "GI50", "setting": "SK-OV-3", "value": "22.2 µM (inactive)"},
      {"measurement": "GI50", "setting": "HOP-92", "value": "6.05 µM (inactive)"},
      {"measurement": "GI50", "setting": "MDA-MB-435", "value": "7.53 µM (inactive)"},
      {"measurement": "GI50", "setting": "HCT-116", "value": "7.55 µM (inactive)"},
      {"measurement": "GI50", "setting": "HCT-15", "value": 10.8, "unit": "µM"},
      {"measurement": "GI50", "setting": "COLO 205", "value": "14.5 µM (inactive)"},
      {"measurement": "GI50", "setting": "U-251", "value": "5.43 µM (inactive)"},
      {"measurement": "GI50", "setting": "HOP-62", "value": "17.5 µM (inactive)"},
      {"measurement": "GI50", "setting": "HCC 2998", "value": "4.9 µM (inactive)"},
      {"measurement": "GI50", "setting": "SNB-75", "value": "24 µM (inactive)"},
      {"measurement": "GI50", "setting": "SNB-19", "value": "12 µM (inactive)"},
      {"measurement": "GI50", "setting": "DU-145", "value": "7.43 µM (inactive)"},
      {"measurement": "GI50", "setting": "SK-MEL-5", "value": "12.6 µM (inactive)"},
      {"measurement": "GI50", "setting": "RXF 393", "value": "12.8 µM (inactive)"},
      {"measurement": "GI50", "setting": "NCI-H522", "value": "11.9 µM (inactive)"},
      {"measurement": "GI50", "setting": "A549", "value": "11.1 µM (inactive)"},
      {"measurement": "GI50", "setting": "OVCAR-5", "value": "18.6 µM (inactive)"},
      {"measurement": "GI50", "setting": "SW-620", "value": "> 25.5 µM (inactive)"},
      {"measurement": "GI50", "setting": "SF-539", "value": "13.7 µM (inactive)"},
      {"measurement": "GI50", "setting": "HL-60", "value": "> 41.3 µM (inactive)"},
      {"measurement": "GI50", "setting": "NCI-H23", "value": "7.8 µM (inactive)"},
      {"measurement": "GI50", "setting": "IGROV-1", "value": "5.38 µM (inactive)"},
      {"measurement": "GI50", "setting": "OVCAR-3", "value": "7.66 µM (inactive)"},
      {"measurement": "GI50", "setting": "K562", "value": "15.8 µM (inactive)"},
      {"measurement": "GI50", "setting": "MDA-MB-231", "value": "11.1 µM (inactive)"},
      {"measurement": "GI50", "setting": "RPMI-8226", "value": "4.14 µM (inactive)"},
      {"measurement": "GI50", "setting": "SF-268", "value": "9.66 µM (inactive)"},
      {"measurement": "GI50", "setting": "SR", "value": "3.56 µM (inactive)"},
      {"measurement": "GI50", "setting": "SK-MEL-28", "value": "18.9 µM (inactive)"},
      {"measurement": "GI50", "setting": "SF-295", "value": "10.3 µM (inactive)"},
      {"measurement": "GI50", "setting": "MCF7", "value": "4.81 µM (inactive)"},
      {"measurement": "GI50", "setting": "CAKI-1", "value": "13.5 µM (inactive)"},
      {"measurement": "GI50", "setting": "HT-29", "value": "8.11 µM (inactive)"},
      {"measurement": "GI50", "setting": "A498", "value": "12 µM (inactive)"},
      {"measurement": "GI50", "setting": "LOX IMVI", "value": "6.25 µM (inactive)"},
      {"measurement": "GI50", "setting": "NCI/ADR-RES", "value": "13.9 µM (inactive)"},
      {"measurement": "GI50", "setting": "SN12C", "value": "12.5 µM (inactive)"}
    ]}
  ]
}
